Experimental data: patent US20070232615A1, “Chemical Compounds” (priority 2004, published 2007)

Tested on: HIV
Assay: HOS HIV infectivity assay (Table 2, strain not given)
Type: cell-based
Settings: Human immunodeficiency virus 1, read-out: Activity Level
Method: HOS HIV-1 Infectivity Assay
Compounds were profiled against two HIV-1 viruses, the M-tropic (CCR5 utilizing) Ba-L strain and the T-tropic (CXCR4 utilizing) IIIB strain. Both viruses were propagated in human peripheral blood lymphocytes. Compounds were tested for there ability to block infection of the HOS cell line (expressing hCXCR4/hCCR5/hCD4/pHIV-LTR-luciferase) by either HIV-1 Ba-L or HIV-1 IIIB. Compound cytotoxicity was also examined in the absence of virus addition.
HOS HIV-1 Infectivity Assay Format
HOS cells (expressing hCXCR4/hCCR5/hCD4/pHIV-LTR-luciferase) were harvested and diluted in Dulbeccos modified Eagles media supplemented with 2% FCS and non-essential amino acid to a concentration of 60,000 cells/ml. The cells were plated into 96-well plates (100 ul per well) and the plates were placed in a tissue culture incubator (37° C.; 5% CO2/95% air) for a period of 24 h.
Subsequently, 50 ul of the desired drug solution (4 times the final concentration) was added to each well and the plates were returned to the tissue culture incubator (37° C.; 5% CO2/95% air) for 1 h. Following this incubation 50 ul of diluted virus was added to each well (approximately 2 million RLU per well of virus). The plates were returned to the tissue culture incubator (37° C.; 5% CO2/95% air) and were incubated for a further 96 h.
Following this incubation the endpoint for the virally infected cultures was quantified following addition of Steady-Glo Luciferase assay system reagent (Promega, Madison, Wis.). Cell viability or non-infected cultures was measured using a CellTiter-Glo luminescent cell viability assay system (Promega, Madison, Wis.). All luminescent readouts are performed on a Topcount luminescence detector (Packard, Meridien, Conn.).

Structure (SMILES) | IC50 [nM]
CCN(Cc1cn2c(N3CCN(C)CC3)cccc2n1)[C@H]1CCCc2cccnc21 [Example 54, (8S)—N-Ethyl-N-{[5-(4-methyl-1-piperazinyl)imidazo[1,2-a]pyridin-2-yl]methyl}-5,6,7,8-tetrahydro-8-quinolinamine] | < 100
CC(C)N(Cc1cn2c(N3CCN(C)CC3)cccc2n1)[C@H]1CCCc2cccnc21 [Example 55, (8S)—N-(1-Methylethyl)-N-{[5-(4-methyl-1-piperazinyl)imidazo[1,2-a]pyridin-2-yl]methyl}-5,6,7,8-tetrahydro-8-quinolinamine] | < 100
CCCN(Cc1cn2c(N3CCN(C)CC3)cccc2n1)[C@H]1CCCc2cccnc21 [Example 56, (8S)—N-{[5-(4-Methyl-1-piperazinyl)imidazo[1,2-a]pyridin-2-yl]methyl}-N-propyl-5,6,7,8-tetrahydro-8-quinolinamine] | < 100
CN1CCN(c2cccc3nc(CN(CC4CC4)[C@H]4CCCc5cccnc54)cn23)CC1 [Example 57, (8S)—N-(Cyclopropylmethyl)-N-{[5-(4-methyl-1-piperazinyl)imidazo[1,2-a]pyridin-2-yl]methyl}-5,6,7,8-tetrahydro-8-quinolinamine] | < 100
CCCCN(Cc1cn2c(N3CCN(C)CC3)cccc2n1)[C@H]1CCCc2cccnc21 [Example 58, (8S)—N-Butyl-N-{[5-(4-methyl-1-piperazinyl)imidazo[1,2-a]pyridin-2-yl]methyl}-5,6,7,8-tetrahydro-8-quinolinamine] | < 100
CN1CCN(c2cccc3nc(CN(Cc4ccccc4)[C@H]4CCCc5cccnc54)cn23)CC1 [Example 59, (8S)—N-{[5-(4-Methyl-1-piperazinyl)imidazo[1,2-a]pyridin-2-yl]methyl}-N-(phenylmethyl)-5,6,7,8-tetrahydro-8-quinolinamine] | < 100
CN1CCN(c2cccc3nc(CN(Cc4ccccc4F)[C@H]4CCCc5cccnc54)cn23)CC1 [Example 60, (8S)—N-[(2-Fluorophenyl)methyl]-N-{[5-(4-methyl-1-piperazinyl)imidazo[1,2-a]pyridin-2-yl]methyl}-5,6,7,8-tetrahydro-8-quinolinamine] | < 100
CN1CCN(c2cccc3nc(CN(Cc4cccc(F)c4)[C@H]4CCCc5cccnc54)cn23)CC1 [Example 61, (8S)—N-[(3-Fluorophenyl)methyl]-N-{[5-(4-methyl-1-piperazinyl)imidazo[1,2-a]pyridin-2-yl]methyl}-5,6,7,8-tetrahydro-8-quinolinamine] | < 100
CN1CCN(c2cccc3nc(CN(Cc4ccc(F)cc4)[C@H]4CCCc5cccnc54)cn23)CC1 [Example 62, (8S)—N-[(4-Fluorophenyl)methyl]-N-{[5-(4-methyl-1-piperazinyl)imidazo[1,2-a]pyridin-2-yl]methyl}-5,6,7,8-tetrahydro-8-quinolinamine] | < 100
CN1CCN(c2cccc3nc(CN(Cc4ccccc4Br)[C@H]4CCCc5cccnc54)cn23)CC1 [Example 63, (8S)—N-[(2-Bromophenyl)methyl]-N-{[5-(4-methyl-1-piperazinyl)imidazo[1,2-a]pyridin-2-yl]methyl}-5,6,7,8-tetrahydro-8-quinolinamine] | 100 to 500
CN1CCN(c2cccc3nc(CN(Cc4cccc(Br)c4)[C@H]4CCCc5cccnc54)cn23)CC1 [Example 64, (8S)—N-[(3-Bromophenyl)methyl]-N-{[5-(4-methyl-1-piperazinyl)imidazo[1,2-a]pyridin-2-yl]methyl}-5,6,7,8-tetrahydro-8-quinolinamine] | < 100
CN1CCN(c2cccc3nc(CN(Cc4ccc(Br)cc4)[C@H]4CCCc5cccnc54)cn23)CC1 [Example 65, (8S)—N-[(4-Bromophenyl)methyl]-N-{[5-(4-methyl-1-piperazinyl)imidazo[1,2-a]pyridin-2-yl]methyl}-5,6,7,8-tetrahydro-8-quinolinamine] | < 100
Cc1ccccc1CN(Cc1cn2c(N3CCN(C)CC3)cccc2n1)[C@H]1CCCc2cccnc21 [Example 66, (8S)—N-[(2-Methylphenyl)methyl]-N-{[5-(4-methyl-1-piperazinyl)imidazo[1,2-a]pyridin-2-yl]methyl}-5,6,7,8-tetrahydro-8-quinolinamine] | < 100
Cc1cccc(CN(Cc2cn3c(N4CCN(C)CC4)cccc3n2)[C@H]2CCCc3cccnc32)c1 [Example 67, (8S)—N-[(3-Methylphenyl)methyl]-N-{[5-(4-methyl-1-piperazinyl)imidazo[1,2-a]pyridin-2-yl]methyl}-5,6,7,8-tetrahydro-8-quinolinamine] | < 100
Cc1ccc(CN(Cc2cn3c(N4CCN(C)CC4)cccc3n2)[C@H]2CCCc3cccnc32)cc1 [Example 68, (8S)—N-[(4-Methylphenyl)methyl]-N-{[5-(4-methyl-1-piperazinyl)imidazo[1,2-a]pyridin-2-yl]methyl}-5,6,7,8-tetrahydro-8-quinolinamine] | < 100
CN1CCN(c2cccc3nc(CN(Cc4ccccc4C(F)(F)F)[C@H]4CCCc5cccnc54)cn23)CC1 [Example 69, (8S)—N-{[5-(4-Methyl-1-piperazinyl)imidazo[1,2-a]pyridin-2-yl]methyl}-N-{[2-(trifluoromethyl)phenyl]methyl}-5,6,7,8-tetrahydro-8-quinolinamine] | 100 to 500
CN1CCN(c2cccc3nc(CN(Cc4cccc(C(F)(F)F)c4)[C@H]4CCCc5cccnc54)cn23)CC1 [Example 70, (8S)—N-{[5-(4-Methyl-1-piperazinyl)imidazo[1,2-a]pyridin-2-yl]methyl}-N-{[3-(trifluoromethyl)phenyl]methyl}-5,6,7,8-tetrahydro-8-quinolinamine] | < 100
CN1CCN(c2cccc3nc(CN(Cc4ccc(C(F)(F)F)cc4)[C@H]4CCCc5cccnc54)cn23)CC1 [Example 71, (8S)—N-{[5-(4-Methyl-1-piperazinyl)imidazo[1,2-a]pyridin-2-yl]methyl}-N-{[4-(trifluoromethyl)phenyl]methyl}-5,6,7,8-tetrahydro-8-quinolinamine] | < 100
COc1ccccc1CN(Cc1cn2c(N3CCN(C)CC3)cccc2n1)[C@H]1CCCc2cccnc21 [Example 72, (8S)—N-{[2-(Methyloxy)phenyl]methyl}-N-{[5-(4-methyl-1-piperazinyl)imidazo[1,2-a]pyridin-2-yl]methyl}-5,6,7,8-tetrahydro-8-quinolinamine] | < 100
COc1cccc(CN(Cc2cn3c(N4CCN(C)CC4)cccc3n2)[C@H]2CCCc3cccnc32)c1 [Example 73, (8S)—N-{[3-(Methyloxy)phenyl]methyl}-N-{[5-(4-methyl-1-piperazinyl)imidazo[1,2-a]pyridin-2-yl]methyl}-5,6,7,8-tetrahydro-8-quinolinamine] | < 100
COc1ccc(CN(Cc2cn3c(N4CCN(C)CC4)cccc3n2)[C@H]2CCCc3cccnc32)cc1 [Example 74, (8S)—N-{[4-(Methyloxy)phenyl]methyl}-N-{[5-(4-methyl-1-piperazinyl)imidazo[1,2-a]pyridin-2-yl]methyl}-5,6,7,8-tetrahydro-8-quinolinamine] | < 100
CC(C)c1ccc(CN(Cc2cn3c(N4CCN(C)CC4)cccc3n2)[C@H]2CCCc3cccnc32)cc1 [Example 75, (8S)—N-{[4-(1-Methylethyl)phenyl]methyl}-N-{[5-(4-methyl-1-piperazinyl)imidazo[1,2-a]pyridin-2-yl]methyl}-5,6,7,8-tetrahydro-8-quinolinamine] | < 100
CC(C)Cc1ccc(CN(Cc2cn3c(N4CCN(C)CC4)cccc3n2)[C@H]2CCCc3cccnc32)cc1 [Example 77, (8S)—N-{[5-(4-Methyl-1-piperazinyl)imidazo[1,2-a]pyridin-2-yl]methyl}-N-{[4-(2-methylpropyl)phenyl]methyl}-5,6,7,8-tetrahydro-8-quinolinamine] | < 100
CN1CCN(c2cccc3nc(CN(CCO)[C@H]4CCCc5cccnc54)cn23)CC1 [Example 78, 2-{{[5-(4-Methyl-1-piperazinyl)imidazo[1,2-a]pyridin-2-yl]methyl}[(8S)-5,6,7,8-tetrahydro-8-quinolinyl]amino}ethanol] | < 100
CN1CCN(c2cccc3nc(CN(CCCO)[C@H]4CCCc5cccnc54)cn23)CC1 [Example 79, 3-{{[5-(4-Methyl-1-piperazinyl)imidazo[1,2-a]pyridin-2-yl]methyl}[(8S)-5,6,7,8-tetrahydro-8-quinolinyl]amino}-1-propanol] | < 100
CN(Cc1cn2c(N3CCC(N)CC3)cccc2n1)[C@H]1CCCc2cccnc21 [Example 80, (8S)—N-{[5-(4-Amino-1-piperidinyl)imidazo[1,2-a]pyridin-2-yl]methyl}-N-methyl-5,6,7,8-tetrahydro-8-quinolinamine] | < 100
CN(C)CCN(C)c1cccc2nc(CN(C)[C@H]3CCCc4cccnc43)cn12 [Example 81, N,N,N′-Trimethyl-N′-[2-({methyl[(8S)-5,6,7,8-tetrahydro-8-quinolinyl]amino}methyl)imidazo[1,2-a]pyridin-5-yl]-1,2-ethanediamine] | < 100
CN(Cc1cn2c(N3CCN4CCCC4C3)cccc2n1)[C@H]1CCCc2cccnc21 (stereo partly drawn) [Example 82, (8S)—N-{[5-(Hexahydropyrrolo[1,2-a]pyrazin-2(1H)-yl)imidazo[1,2-a]pyridin-2-yl]methyl}-N-methyl-5,6,7,8-tetrahydro-8-quinolinamine] | < 100
